“Also recorded” adds a separate entry of the source.
What was measured:
[1] = system: Crandell feline kidney fibroblast cells (CrFK); experiment: Natural killer cell cytotoxic activity in cats; format: in vivo, cat
Protocol: Natural killer cell cytotoxic activity. Cultures of Crandell feline kidney fibroblast cells (CrFK, ATCC CRL-9761; Crandell et al., 1973) were grown in Dulbecco's Modified Eagles Medium (Sigma, St. Louis, Mo.) with 10% fetal bovine serum, 100 U/mL penicillin, and […] streptomycin sulfate. At 70-90% confluence, cells were trypsinized, washed and adjusted to 2×10^5 cells/mL. One hundred microliters of cell suspension was pipeted into each well of 96-well flat bottom plates (Nunclon, Denmark) and incubated at 37° C. for 8 hours. Ficoll-separated PBMC were adjusted to 1×10^6/mL or 2×10^6/mL and 100 μL of the cell suspensions were added to the CrFK target cells to provide effector:target cell ratios of 5:1 and 10:1. After incubating for 8 hours, 20 μL MTT (5 g/L) were added and the mixture incubated for 4 hours. The supernatant was removed and the formazan resuspended in 100 μL isopropanol. Optical density was measured at 550 nm and the percent of specific cytotoxicity calculated as follows:
(§1) % Specific cytotoxicity=1−(ODeffector+target−ODeffector)/ODtarget×100.

[2] = Absorption of astaxanthin and distribution to blood leukocytes and HDL in dogs; format: in vivo, dog
[3] = system: peripheral blood mononuclear cell (PBMC); experiment: Lymphoproliferation in dogs (whole blood cultures); format: in vivo, dog
Protocol: Lyniphoproliferation. The proliferation response of peripheral blood mononuclear cell (PBMC) to PHA (2 and 10 mg/L final concentration), concanavalin A (Con A; 1 and 5 mg/L), and pokeweed mitogen (PWM; 0.25 and 1.25 mg/L) was assessed on week 0, 6, 12 and 16 using whole blood cultures (Chew et al., 2000). Whole blood was cultured in order to mimic in vivo conditions.

[4] = system: CD3, CD4, CD8, MHC II and CD21 lymphocyte subpopulations; experiment: Leukocyte subsets in dogs by flow cytometry; format: in vivo, dog
Description: Leukocyte subset. Subpopulations of CD3 (total T), CD4 (Th), CD8 (Tc), MHC II (activated lymphocytes), and CD21 (mature B cells) were quantitated by flow cytometry on week 0, 6, 12 and 16 (Chew et al., 2000).

[5] = Hematology in dogs; format: in vivo, dog; conditions: throughout the study
Protocol: Hematology. Complete blood count (white blood cell, RBC and platelet counts, lymphocyte, monocyte and granulocyte differential counts, hematocrit, hemoglobin, and mean corpuscular volume, hemoglobin and hemoglobin concentration, and platelet volume) was performed on a hematology analyzer (Vet ABC-Hematology Analyzer, Heska, Fort Collins, Colo.) using EDTA-treated blood.

[6] = system: splenocyte; conditions: mice (Chew et al., 1999); cited from earlier work
[7] = Absorption of astaxanthin and distribution to blood leukocytes and HDL in cats; format: in vivo, cat
[8] = system: cutaneous delayed-type hypersensitivity (DTH); experiment: Delayed-type hypersensitivity (skin induration) in dogs; format: in vivo, dog
Protocol: Female Beagle dogs (9 to 10 mo old; 8.2±0.2 kg body weight; Covance Research Products Inc., Kalamazoo, Mich.) were randomly assigned (n=14/treatment) to be fed 0, 10, 20, or 40 mg astaxanthin (109 g astaxanthin/kg oleoresin concentrate from Haematococcus pluvialis, astraZanthin™, La Haye Laboratories, Redmond, Wash.) daily for 16 weeks. Astaxanthin was incorporated into a commercial basal diet (The Iams Co., Lewisburg, Ohio.) and fed two times daily (200 g food/d). […] Blood was collected on wk 0, 6 and 12 for assessing immune function. All dogs were vaccinated (Vanguard 5™, Smithkline Beacham, West Chester, Pa.) twice on week 12 and 14 and blood again taken on week 16 to assess post-vaccination immune responses.
On week 12 (before vaccination) and 16 (after vaccination), all dogs were injected intradermally with 100 microliters of (1) saline (8.5 g/L; negative control), (2) an attenuated polyvalent vaccine containing canine distemper virus, adenovirus type-2, parainfluenza virus and parvovirus (undiluted; Vanguard 5™, Smithkline Beacham, West Chester, Pa.), and (3) phytohemagglutinin (PHA, 0.5 g/L) as previously described (Chew et al., 2000) to assess cutaneous delayed-type hypersensitivity (DTH). Skin induration was measured at 0, 24, 48 and 72 hours post-injection.

[9] = compared with other antioxidants (Naguib, 2000; Miki, 1991); cited from earlier work
[10] = Body weight of cats fed astaxanthin; format: in vivo, cat
Protocol: Female domestic short hair cats (8 to 9 months old; 3.2±0.04 kg body weight; Liberty Farms, Waverly, N.Y.) were randomly assigned (n=14/diet) to be fed 0, 1, 5, or 10 mg astaxanthin (109 g astaxanthin/kg oleoresin concentrate from Haematococcus pluvialis, astraZanthin™, La Haye Laboratories, Redmond, Wash.) daily (based on an average intake of 90 g food/day) for 12 weeks. Astaxanthin was incorporated into a commercial basal diet (The Iams Co., Lewisburg, Ohio.) and fed ad libitum. The diet composition was as follows (g/kg): 63.1 moisture, 350.6 protein, 62.7 ash, 213.6 fat, 10.0 Ca, 7.6 P, and 7.1 crude fiber, 21,707 kJ/kg gross energy; the n-6:n-3 fatty acid ratio was 9.9. Cats were housed in a temperature (20 to 22° C.) and light-controlled (14 hour light) facility and body weights were determined at weeks 0, 4, 8 and 12. Blood was collected at week 0 and 8 to assess immune function. To assess the dietary effects of astaxanthin on immune response after an antigenic challenge, all cats were vaccinated (Felocell™, Pfizer, N.Y.) two times (weeks 8 and 10) and blood was collected at week 12 to measure the same immune parameters.

[11] = system: Canine thyroid adenocarcinoma cells (target cells); experiment: Natural killer cell cytotoxic activity in dogs; format: in vivo, dog
Protocol: Natural killer cell cytotoxic activity. Canine thyroid adenocarcinoma cells (target cells) were resuspended to 2×10^5 cells/mL in Dulbecco's Modified Eagles Medium (Sigma, St. Louis, Mo.) containing 100 mL/L fetal bovine serum, 100 U/mL penicillin, and […] streptomycin sulfate. Ficol-separated PBMC (effector cells) were resuspended to 1×10^6 and 2×10^6 cells/mL and 100 microliters added to the target cells in 96-well flat-bottom plates to provide effector:taiget ratios of 5:1 and 10:1. After incubating for 8 h, 20 microliters (5 g/L) of MTT were added and incubated for 4 hours. The supernatant was removed and the formazan resuspended in 100 microliters isopropanol. Optical density was measured at 550 nm and the percent of specific cytotoxicity calculated as follows:
as §1

[12] = Hematology in cats; set-up: species or system cat; conditions: in vivo
Protocol: Hematology. Hematology parameters (white blood cell, RBC and platelet counts, lymphocyte, monocyte and granulocyte differential counts, hematocrit, hemoglobin, and mean corpuscular volume, hemoglobin and hemoglobin concentration, and platelet volume) were measured using a hematology analyzer (Vet ABC-Hematology Analyzer, Heska, Fort Collins, Colo.).

CC1=C(/C=C/C(C)=C/C=C/C(C)=C/C=C/C=C(C)/C=C/C=C(C)/C=C/C2=C(C)C(=O)C(O)CC2(C)C)C(C)(C)CC(O)C1=O (stereo not drawn) [astaxanthin, 3,3′-dihydroxy-beta, beta-carotene-4,4′-dione]
NK cell cytotoxic activity ([1]; week 8): no dietary treatment differences | NK cell cytotoxic activity ([1]; week 12, effector:target ratio 5:1, 5 and 10 mg): stimulated NK cell cytotoxic activity | NK cell cytotoxic activity ([1]; week 12, effector:target ratio 10:1, 1, 5 and 10 mg): stimulated NK cell cytotoxic activity | lipoprotein association of circulating astaxanthin ([2]; dogs): associated with high-density lipoprotein (HDL) | absorption of dietary astaxanthin ([2]; domestic dogs): able to absorb dietary astaxanthin | uptake by blood and blood leukocytes (sub-cellular organelles) ([2]; domestic dogs fed astaxanthin): significant uptake by the blood and by all sub-cellular organelles of blood leukocytes; also recorded: significantly absorbed by blood leukocytes | con A-induced PBMC proliferation ([3]; 20 mg, week 12): higher con A-induced PBMC proliferation than un-supplemented dogs; also recorded: highest blastogenic response | PHA-stimulated PBMC proliferation ([3]; all time periods): did not influence | PWM-stimulated PBMC proliferation ([3]; all time periods): did not influence | population of B cells ([4]; 20 mg, post-vaccination week 16): showed the highest response; also recorded: highest B cell subpopulation | CD4 population ([4]; any time period): did not effect changes | CD8 population ([4]; any time period): did not effect changes | MHC class II population ([4]; any time period): did not effect changes | CD3 population ([4]; dogs fed 30 mg): transient decrease in the CD3 population | population of B cells ([4]; week 6 and 12, dose-dependent): generally increased the population of B cells | blood hematology [5]: generally showed no dietary effects | mitogen-induced splenocyte proliferation [6]: enhance mitogen-induced splenocyte proliferation | lipoprotein association of circulating astaxanthin ([7]; cats): associated with high-density lipoprotein (HDL) | absorption of dietary astaxanthin ([7]; domestic cats): able to absorb dietary astaxanthin | uptake by blood and blood leukocytes (sub-cellular organelles) ([7]; domestic cats fed astaxanthin): significant uptake by the blood and by all sub-cellular organelles of blood leukocytes; also recorded: significantly absorbed by blood leukocytes | time after intradermal challenge at which skin induration response was observed ([8]; before vaccination): 48 h | DTH response to PHA ([8]; nonspecific antigen): No similar response was observed; also recorded: but not to PHA | time after intradermal challenge at which skin induration response was observed ([8]; post-vaccination): 24 h | DTH response compared with other carotenoids previously investigated ([8]; versus β-carotene and lutein in dogs): heightened DTH response | skin induration response to saline, PHA or vaccine ([8]; wk 0 and 8): did not significantly influence | DTH response to intradermal vaccine challenge ([8]; wk 12 (before vaccination), dogs fed 10, 20 and 30 mg (10 to 40 mg)): significant DTH response to vaccine; also recorded: higher DTH response at 38 and 72 h; also recorded: increased delayed-type hypersensitivity (DTH) response | DTH response to intradermal vaccine challenge ([8]; wk 16, after vaccination on wk 12 and 14): observed earlier (at 24 and 38 h); also recorded: similarly enhanced | antioxidant activity against certain reactive oxygen species [9]: higher than that of beta-carotene, canthaxanthin, lutein, alpha-tocopherol, tunaxanthin, and zeaxanthin | body weight between treatments ([10]; cats fed 0, 1, 5 or 10 mg daily, 12 weeks): not significantly different between treatment | body weight averaged ([10]; week 12, average over all diets): 3.22 ± 0.06 kg | NK cell activity ([11]; week 6): dose-dependent increase in NK cell activity | NK cell activity ([11]; week 6, dogs fed 30 mg): significantly higher than control | NK cell cytotoxic activity ([11]; week 12, 20 mg): higher NK cell cytotoxic activity than control | NK cell cytotoxic activity ([11]; week 16 (trend as week 12: 20 mg higher, 40 mg not)): same trend continued through week 16 | blood hematology parameters [12]: generally did not influence | hematology values relative to normal range [12]: within the normal range

Reference: patent US20040151761A1, “Methods and compositions utilizing astaxanthin” (priority 2003, published 2004)
